Test results reported in PMC4595804, “A strategy to discover decoy chemokine ligands with an anti-inflammatory activity” (Scientific Reports, 2015).

Tests used:
COX1 = molecular target: T1, COX1 (Homo sapiens, UniProt P23219); assay: COX1 mediated PGE2 release in primary monocytes; type: cell-based; conditions: monocytes + arachidonic acid
T1 construct: endogenous in cells; host or cells: primary human monocytes
Method: the wound closure was determined as the difference between wound width at times 0 and 72h. This experiment was repeated three times.
Human primary monocytes were isolated from buffy coats of healthy human blood donors and seeded in 24-well plates (500,000 cells/ml in 1ml) for COX-1/2 activity or 96-well plates for cell viability experiments.
Cells were seeded in 96 well plates (5,000 cells/well in 200µl) for cytotoxicity testing (Alamar […]
doses). After 24h, cytotoxicity was evaluated in the wells using the Alamar Blue method. NaF (250µg/ml) was used as a control in this experiment.
Cyclooxygenase (COX) activity
COX1 mediated prostaglandin E2 (PGE2) release. Monocytes were treated with arachidonic […]
were then collected for the determination of PGE2 by enzyme immunoassay (EIA) […]
COX2 mediated prostaglandin E2 (PGE2) release. Monocytes were incubated with LPS (10U/ml) for 24h to induce COX2 protein synthesis. After renewal of medium (serum free), […]
before AA treatment. The activity of COX2 was determined by measuring PGE2 (Cayman) in the supernatants by EIA. Aspirin (10µM) and diclofenac (10µM) were used as control […]
NaF (250µg/ml) was used as a control (relative light unit, r.l.u). (c) Monocytes were treated […]
GPN136 (grey bars). The activity of COX1 was determined by measuring prostaglandin E2 (PGE2). […]
of COX2 was determined by measuring PGE2. […]

CCL22 = molecular target: T2, CCL22 (Homo sapiens, UniProt O00626); assay: TRIC-r calcium assay, neutraligand protocol: compound preincubated with CCL22, EGFP-CCR4+Gqi5+ HEK cells; type: cell-based; conditions: for inhibition at 5 µM: compound 5 µM, read-out: Inhibition of CCL22 calcium responses (%)
T2 construct: codes for the mature CCL17 or CCL22 with an N-terminal thioredoxin-hexahistidin (TRX- (His)6) tag; thioredoxin (TRX) (N, cleaved yes); (His)6 (N, cleaved yes); made in house; host or cells: E. coli BL21 (DE3)
T2 sequence (O00626 25-93): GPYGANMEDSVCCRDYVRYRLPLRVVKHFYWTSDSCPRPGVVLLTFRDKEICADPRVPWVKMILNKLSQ
Method: EGFP-CCR4^+Gqi5^+HEKcells were loaded with fluorescent Ca^2+-indicator Indo-1 AM (5μM, Interchim) for 45 min at 37 °C. […] Cells (100,000 cells/well, 100μl) were seeded in black clear bottom 96-well plates (Greiner), and centrifuged at 250 × g for 5 min.
Two plates (96-well plates, Greiner) were prepared for the screen: one containing test compounds alone in order to determine their direct agonistic activity, and another one containing test compounds mixed with CCL17 or CCL22 at room temperature for 1 h (neutraligand protocol). The chemokines and test compounds were prepared at a 3× concentration, while digitonin was prepared at a 4× concentration. The CCR4 antagonist, C-021 served as control in the experiment. In the antagonist protocol, compounds were added to the cell plate (one compound per well) and incubated with cells for 30 min at room temperature, while the agonist (CCL17 or CCL22) was added to the ligand plate only.
Dye loaded cells were placed in the FlexStation 3 (Molecular Devices). […] For the primary screening, the ligands (50μl of chemokine mixed with DMSO or test compounds) were added to the cells at 40 s, followed by digitonin addition (50μl) at 100 s to the cells. Molecules were screened at a final concentration of 2μg/ml with 5 nM CCL17 or CCL22. […] The calcium response values (height of peak response over baseline) were determined. Hits were selected by comparing the response amplitude at the time of the chemokine addition ± test compound. The Z’ factor[29] was calculated according to the following equation: Z’ = 1-(3SD+ + 3SD−)/|Ave+ − Ave−|, where SD+ and Ave+ are respectively the standard deviation and the mean value of the positive controls (chemokine + DMSO), while SD− and Ave− are respectively the standard deviation and the mean value of the negative controls (HEPES-BSA (0.1%) mixed with DMSO, or cells mixed with C-021). Hit molecules were confirmed by performing concentration-response curves and their half maximal inhibitory concentration (IC50) values were calculated using the Kaleidagraph software.

T1 sequence (P23219 24-599): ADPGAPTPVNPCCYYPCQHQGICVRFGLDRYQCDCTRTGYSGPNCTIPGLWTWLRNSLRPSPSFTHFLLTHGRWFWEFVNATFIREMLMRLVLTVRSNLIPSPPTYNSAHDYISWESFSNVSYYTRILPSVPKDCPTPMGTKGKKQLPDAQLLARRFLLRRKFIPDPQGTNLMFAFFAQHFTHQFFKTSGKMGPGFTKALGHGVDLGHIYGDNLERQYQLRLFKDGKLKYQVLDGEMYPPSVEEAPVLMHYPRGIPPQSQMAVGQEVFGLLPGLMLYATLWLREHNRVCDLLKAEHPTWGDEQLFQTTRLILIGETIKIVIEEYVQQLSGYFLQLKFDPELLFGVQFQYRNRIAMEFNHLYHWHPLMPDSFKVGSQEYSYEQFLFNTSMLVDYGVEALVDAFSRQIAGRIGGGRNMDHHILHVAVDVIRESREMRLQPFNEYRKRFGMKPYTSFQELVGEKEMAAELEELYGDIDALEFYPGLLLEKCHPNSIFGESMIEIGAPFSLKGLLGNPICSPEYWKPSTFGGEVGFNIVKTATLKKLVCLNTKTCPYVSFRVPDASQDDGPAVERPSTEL

doses at which COX1 activity is inhibited (COX1) [µM]	IC50 (CCL22; 5 nM CCL22 preincubated 1 h with compound, 21 °C, read-out: IC50 for CCL22 neutralization (calcium assay)) [µM]	inhibition at 2 µg/mL (CCL22; HEK293, 2 μg/ml compound preincubated 1 h with 5 nM CCL22, read-out: inhibition of CCL22-induced calcium responses (primary screen)) [%]	Compound	inhibition at 5 µM (CCL22; HEK293) [%]	effect on COX1 activity (PGE2) (COX1; 100 µM)	calcium response induced by WT CCL22 preincubated with compound (CCL22; 10 μM compound, 5 nM chemokine, remaining response)
> 100	11.6 ± 2.5	46	O=C(OCC(O)CO)c1ccccc1O (stereo not shown) [GPN136, 2,3-dihydroxypropyl 2-hydroxybenzoate]	35 ± 8		
			CC(C)=CCn1cnc2c1c(=O)n(C)c(=O)n2C [GPN279, 1,3-dimethyl-7-(3-methylbut-2-enyl)-1H-purine-2,6(3H, 7H)-dione]	0	no effect	neither inhibited WT nor CCL22 mutants
